Test results taken from article PMC9515143, “Phosphorylation of Jhd2 by the Ras-cAMP-PKA(Tpk2) pathway regulates histone modifications and autophagy” (Nature Communications, 2022).

Assays:
Assay type in all cases: cell-based, budding yeast (Saccharomyces cerevisiae)
H3K14ac = assay: Western blot of H3K14ac (glucose, mutants)
Method: (§1) To examine the effect of glucose on histone modifications, yeast cells were grown in 2% glucose-containing YPD (Yeast Extract Peptone Dextrose) medium until OD600 of 0.7–1.0. Cells were then collected, washed and resuspended in YP medium for 3 hr followed by treatment with different concentrations of glucose for 0.5 hr. For 1NM-PP1 (MCE, HY-13804) treatment, cells were grown in 2% YPD until OD600 of 0.7–1.0. Cells were then treated with 25 μM 1NM-PP1 for 0.5 hr. For FBP and pyruvate treatment, cells were pre-treated with Zymolase (Mpbio, 08320921) to increase the permeability. In brief, cells were grown in YPD medium until OD600 of 0.7–1.0, centrifuged and resuspended in 1 ml SB buffer (100 mM Sorbitol, 20 mM Tris pH 7.4). 10 μl Zymolase was then added and incubated at 30 °C for 15 min. The spheroplasts were washed and cultured in YPD medium containing different concentrations of FBP and pyruvate for 3 hr.
Cells were grown in 5 ml YPD or selective medium until OD600 of 0.7–1.0. Cells were harvested and lysed in alkaline lysis buffer (2 M NaOH, 8% 2-mercaptoethanol). After centrifugation, the protein pellet was resuspended in 150 μl 2×SDS-sample buffer. Protein samples were separated by 8–15% SDS-PAGE and transferred to PVDF membrane. […] The protein bands were visualized using the ECL Chemiluminescence Detection Kit (Bio-Rad, 170–5061) and quantified with Image J software (v.1.8.0).

PKA subunits = assay: Expression of PKA subunits (Tpk1, Tpk2, Tpk3, Bcy1) after glucose, Western blot; conditions: for Tpk2/GAPDH / Tpk3/GAPDH: normalized to Tpk1/GAPDH at same glucose; for Bcy1/GAPDH: normalized to Bcy1/GAPDH at 0.05% glucose
Method: (§2) Cells were grown in 5 ml YPD or selective medium until OD600 of 0.7–1.0. Cells were harvested and lysed in alkaline lysis buffer (2 M NaOH, 8% 2-mercaptoethanol). After centrifugation, the protein pellet was resuspended in 150 μl 2×SDS-sample buffer. Protein samples were separated by 8–15% SDS-PAGE and transferred to PVDF membrane. The blots were probed with primary antibodies followed by incubation with horseradish peroxidase-labelled IgG secondary antibodies. The protein bands were visualized using the ECL Chemiluminescence Detection Kit (Bio-Rad, 170–5061) and quantified with Image J software (v.1.8.0).
Supplementary Fi g . 11 Analysis of PKA subunits subcellular localization, expression and Bcy1 dissociation kinetics. […]
For Supplem ent ar y Fi g. 11 b, dat a r ep res ent m ean s ± SEM; n=3 independent ex perim ents. Tw o -sid ed t-t ests were us ed for statistical

histone modifications = assay: Effect of glucose on histone modifications in WT and ubp8∆ ubp10∆ mutant (Western blot); conditions: for relative histone modification level (Figure S1c): 0.5 hr
Description: To identify the signaling pathway that mediates glucose-induced H3K4me3, we first examined the effect of glucose on histone modifications that regulate Set1-catalyzed H3K4me3, including H2BK123 monoubiquitination (H2Bub) and H3R2 asymmetric dimethylation (H3R2me2a)[30]–[32]. […] We then determine whether glucose increases H3K4me3 by inducing H2Bub. As there is no H3K4me3 in the deletion mutants of RAD6 and BRE1, which catalyze H2Bub[30],[31], it is impossible to determine the effect of glucose on H3K4me3 in rad6Δ and bre1Δ mutants. We thus examined the effect of glucose on H3K4me3 in the deletion mutant of UBP8 and UBP10, which encode H2B ubiquitin proteases[33],[34]. […] We also examined the effect of glucose on the activity of Set1-containing complex (COMPASS).
as §1, §2
Supplementary Fi g . 1 Glu cose induces H3K4me 3 via the Ras-cAMP-PKA(T p k 2) pathway. […]
Cells were th en tr eat ed with YP medium supplement ed with differen t concentrations of glucos e for 0.5 hr. C ells were h ar vested an d the ex tract ed histones w er e anal yz ed by Western blots with indicat ed ant ibodies. To d et ect H2B monoubiquitination, H2B-F LAG strain w as used and d et ect ed with anti -F LAG ant ibody. Th e upper bands ar e monoubiquitinat ed H2B-F LAG. c E ff e c t of gl ucose on histone modifications in WT and ubp8∆ ubp10∆ mutant. WT and ubp8∆ ubp10∆ mut ant w er e gro wn in YPD medium unti l OD600 of […]
For Supplem ent ar y Fi g. 1b, e-g, i-k, d at a r ep res ent means ± SEM; n=3 i ndependent ex perim ents. For Supplem entar y Fi g. 1c, d ata represent means ± SEM; n=4 independent ex periments. Tw o -sided t-tests were used for statistical analysis.

## OC[C@H]1OC(O)[C@H](O)[C@@H](O)[C@@H]1O (some centres unmarked) [glucose]
H3K14ac; WT cells, glucose 0.5 hr
  H3K14ac level: induced H3K14ac
H3K14ac; glucose
  H3K14ac level, WT versus Jhd2-S321A, S340A and tpk2Δ: increased in response to glucose in WT but not in Jhd2-S321A, S340A and tpk2Δ mutants
PKA subunits; 0.05% glucose, replicate 1
  Tpk2/GAPDH: 1.627
  Tpk3/GAPDH: 0.4263
PKA subunits; 0.05% glucose, replicate 2
  Tpk2/GAPDH: 1.616
  Tpk3/GAPDH: 0.1439
PKA subunits; 0.05% glucose, replicate 3
  Tpk2/GAPDH: 1.728
  Tpk3/GAPDH: 0.2447
PKA subunits; 0.05%, 0.5%, 2% glucose, Western blot
  expression of PKA subunits: not significantly altered by glucose
PKA subunits; 0.5% glucose, replicate 1
  Bcy1/GAPDH: 0.8311
  Tpk2/GAPDH: 1.363
  Tpk3/GAPDH: 0.4332
PKA subunits; 0.5% glucose, replicate 2
  Bcy1/GAPDH: 0.7213
  Tpk2/GAPDH: 1.712
  Tpk3/GAPDH: 0.3492
PKA subunits; 0.5% glucose, replicate 3
  Bcy1/GAPDH: 1.191
  Tpk2/GAPDH: 1.416
  Tpk3/GAPDH: 0.1641
PKA subunits; 2% glucose, replicate 1
  Bcy1/GAPDH: 1.059
  Tpk2/GAPDH: 1.492
  Tpk3/GAPDH: 0.565
PKA subunits; 2% glucose, replicate 2
  Bcy1/GAPDH: 0.8633
  Tpk2/GAPDH: 1.634
  Tpk3/GAPDH: 0.1809
PKA subunits; 2% glucose, replicate 3
  Bcy1/GAPDH: 0.977
  Tpk2/GAPDH: 1.419
  Tpk3/GAPDH: 0.2075
Histone modifications; WT, 0.5% glucose, relative to WT 0.05% = 1, replicate 1
  relative histone modification level (Figure S1c): 1.436
Histone modifications; WT, 0.5% glucose, relative to WT 0.05% = 1, replicate 2
  relative histone modification level (Figure S1c): 1.642
Histone modifications; WT, 0.5% glucose, relative to WT 0.05% = 1, replicate 3
  relative histone modification level (Figure S1c): 1.498
Histone modifications; WT, 0.5% glucose, relative to WT 0.05% = 1, replicate 4
  relative histone modification level (Figure S1c): 1.3798
Histone modifications; WT, 2% glucose, relative to WT 0.05% = 1, replicate 1
  relative histone modification level (Figure S1c): 1.805
Histone modifications; WT, 2% glucose, relative to WT 0.05% = 1, replicate 2
  relative histone modification level (Figure S1c): 2.101
Histone modifications; WT, 2% glucose, relative to WT 0.05% = 1, replicate 3
  relative histone modification level (Figure S1c): 2.2062
Histone modifications; WT, 2% glucose, relative to WT 0.05% = 1, replicate 4
  relative histone modification level (Figure S1c): 1.619
Histone modifications; WT, 4% glucose, relative to WT 0.05% = 1, replicate 1
  relative histone modification level (Figure S1c): 1.732
Histone modifications; WT, 4% glucose, relative to WT 0.05% = 1, replicate 2
  relative histone modification level (Figure S1c): 2.2477
Histone modifications; WT, 4% glucose, relative to WT 0.05% = 1, replicate 3
  relative histone modification level (Figure S1c): 2.452
Histone modifications; WT, 4% glucose, relative to WT 0.05% = 1, replicate 4
  relative histone modification level (Figure S1c): 2.7285
Histone modifications; ubp8Δ ubp10Δ, glucose 0.5 hr, Western blot
  H3K4me3 level in ubp8Δ ubp10Δ mutant: H3K4me3 was still increased by glucose
Histone modifications; ubp8Δubp10Δ, 0.05% glucose, relative to WT 0.05% = 1, replicate 1
  relative histone modification level (Figure S1c): 1.962
Histone modifications; ubp8Δubp10Δ, 0.05% glucose, relative to WT 0.05% = 1, replicate 2
  relative histone modification level (Figure S1c): 2.0252
Histone modifications; ubp8Δubp10Δ, 0.05% glucose, relative to WT 0.05% = 1, replicate 3
  relative histone modification level (Figure S1c): 1.753
Histone modifications; ubp8Δubp10Δ, 0.05% glucose, relative to WT 0.05% = 1, replicate 4
  relative histone modification level (Figure S1c): 1.8754
Histone modifications; ubp8Δubp10Δ, 0.5% glucose, relative to WT 0.05% = 1, replicate 1
  relative histone modification level (Figure S1c): 2.076
Histone modifications; ubp8Δubp10Δ, 0.5% glucose, relative to WT 0.05% = 1, replicate 2
  relative histone modification level (Figure S1c): 2.387
Histone modifications; ubp8Δubp10Δ, 0.5% glucose, relative to WT 0.05% = 1, replicate 3
  relative histone modification level (Figure S1c): 2.436
Histone modifications; ubp8Δubp10Δ, 0.5% glucose, relative to WT 0.05% = 1, replicate 4
  relative histone modification level (Figure S1c): 1.826
Histone modifications; ubp8Δubp10Δ, 2% glucose, relative to WT 0.05% = 1, replicate 1
  relative histone modification level (Figure S1c): 2.343
Histone modifications; ubp8Δubp10Δ, 2% glucose, relative to WT 0.05% = 1, replicate 2
  relative histone modification level (Figure S1c): 2.512
Histone modifications; ubp8Δubp10Δ, 2% glucose, relative to WT 0.05% = 1, replicate 3
  relative histone modification level (Figure S1c): 2.749
Histone modifications; ubp8Δubp10Δ, 2% glucose, relative to WT 0.05% = 1, replicate 4
  relative histone modification level (Figure S1c): 2.579
Histone modifications; ubp8Δubp10Δ, 4% glucose, relative to WT 0.05% = 1, replicate 1
  relative histone modification level (Figure S1c): 3.366
Histone modifications; ubp8Δubp10Δ, 4% glucose, relative to WT 0.05% = 1, replicate 2
  relative histone modification level (Figure S1c): 3.228
Histone modifications; ubp8Δubp10Δ, 4% glucose, relative to WT 0.05% = 1, replicate 3
  relative histone modification level (Figure S1c): 2.75
Histone modifications; ubp8Δubp10Δ, 4% glucose, relative to WT 0.05% = 1, replicate 4
  relative histone modification level (Figure S1c): 2.722
